# Reference: publication PMC12381718 (2025)
# Tests used:
# [1] = tested on: ds26 (DNA, duplex) CAATCGGATCGAATTCGATCCGATTG; assay: UV-visible titration; details: K+ (100 mM potassium phosphate), 100 mM KPhos pH 7.4, ambient temperature, 10 µM ligand, apparent
# [2] = tested on: ds26 (DNA, duplex) CAATCGGATCGAATTCGATCCGATTG; assay: CD titration; details: K+ (100 mM potassium phosphate); 100 mM KPhos pH 7.4, 20 °C; 5 µM DNA; weak Ka seen by UV-visible
Ka [1],binding [2],Ka ([1]; continuous 405 nm irradiation),Structure (SMILES)
2.53 × 10^3 M^–1,,,C[n+]1ccc(-c2ccc3c(c2)CCc2cc(-c4cc[n+](C)cc4)ccc2/N=N\3)cc1
,no,2.44 × 10^3 M^–1,C[n+]1ccc(-c2ccc3c(c2)CCc2cc(-c4cc[n+](C)cc4)ccc2/N=N/3)cc1
